One experiment deals with HIV-1. The settings on record: 48 weeks; atazanavir 300 mg/ritonavir 100 mg QD with Truvada versus lopinavir/r; cited from earlier work.
The test system of a further experiment is CCR5-tropic HIV. The experiment can be described thus: Randomized controlled study of atazanavir/ritonavir QD with maraviroc or Truvada in treatment-naïve patients, 24 weeks. It counts as in vivo, human. As to conditions: with atazanavir 300 mg QD and ritonavir 100 mg QD. The source says:
To ascertain whether a once daily, nucleoside-sparing regimen using a CCR5 antagonist could be safely and efficaciously administered to HIV-positive patients infected with CCR5-tropic HIV, a randomized, controlled study is being conducted.

For another experiment, the system named is CCR5 tropic HIV-1 virus. The settings on record: maraviroc 300 mg QD arm, preliminary results; cited from earlier work.

Results on 2 compounds are retold here after patent publication US20130023496A1, “Combination Therapy Comprising A CCR5 Antagonist, A HIV-1 Protease Inhibtior and a Pharmacokinetic Enhancer” (priority 2010, published 2013).

Take `COC(=O)N[C@H](C(=O)N[C@@H](Cc1ccccc1)[C@@H](O)CN(Cc1ccc(-c2ccccn2)cc1)NC(=O)[C@@H](NC(=O)OC)C(C)(C)C)C(C)(C)C` [atazanavir]: the “non-inferiority primary endpoint of undetectable viral load (HIV-1 RNA less than 50 copies/mL)” value with HIV-1 is reported as “met the non-inferiority primary endpoint”.
With “N-{(1S)-3-[3-(3-isopropyl-5-methyl-4H-1,2,4-triazol-4-yl)-exo-8-azabicyclo[3.2.1]oct-8-yl]-1-phenylpropyl}-4, 4-difluorocyclohexanecarboxamide [maraviroc]”, the “increase in CD4+” value in the experiment on CCR5-tropic HIV (after 24 weeks) came to 195 cells. Moreover, in the experiment on CCR5-tropic HIV (week 24, HIV-1 RNA), the “percentage of patients who achieved less than 50 copies/mL” value turned out to be 80% and the “percentage of patients who achieved less than 400 copies/mL” value stood at 90%. Further, the “non-inferiority versus the efavirenz arm” value in the experiment on CCR5 tropic HIV-1 virus is “did not meet the regulatory prespecified criteria for non-inferiority”.
